Test results reported in paper PMC10891769, “Chirality and Rigidity in Triazole-Modified Peptidomimetics Interacting with Neuropilin-1” (Pharmaceuticals, 2024).
Where “and” joins values, the source holds several entries; their conditions need not be identical. Equal entries are not always repeated. No end group written: not given here.

Target: T1, recombinant human NRP-1 (hNRP-1) (Homo sapiens, UniProt O14786)
T1 construct: purchased BioLegend, San Diego, CA, USA
Experiment: chemoluminescence affinity detection: displacement of biotinylated VEGF165A from coated NRP-1
Type: binding
Settings: VEGF 165A displacement from NRP-1; compounds at 12.5-100 µM; ± standard (fitting) error

T1 sequence (O14786 22-923): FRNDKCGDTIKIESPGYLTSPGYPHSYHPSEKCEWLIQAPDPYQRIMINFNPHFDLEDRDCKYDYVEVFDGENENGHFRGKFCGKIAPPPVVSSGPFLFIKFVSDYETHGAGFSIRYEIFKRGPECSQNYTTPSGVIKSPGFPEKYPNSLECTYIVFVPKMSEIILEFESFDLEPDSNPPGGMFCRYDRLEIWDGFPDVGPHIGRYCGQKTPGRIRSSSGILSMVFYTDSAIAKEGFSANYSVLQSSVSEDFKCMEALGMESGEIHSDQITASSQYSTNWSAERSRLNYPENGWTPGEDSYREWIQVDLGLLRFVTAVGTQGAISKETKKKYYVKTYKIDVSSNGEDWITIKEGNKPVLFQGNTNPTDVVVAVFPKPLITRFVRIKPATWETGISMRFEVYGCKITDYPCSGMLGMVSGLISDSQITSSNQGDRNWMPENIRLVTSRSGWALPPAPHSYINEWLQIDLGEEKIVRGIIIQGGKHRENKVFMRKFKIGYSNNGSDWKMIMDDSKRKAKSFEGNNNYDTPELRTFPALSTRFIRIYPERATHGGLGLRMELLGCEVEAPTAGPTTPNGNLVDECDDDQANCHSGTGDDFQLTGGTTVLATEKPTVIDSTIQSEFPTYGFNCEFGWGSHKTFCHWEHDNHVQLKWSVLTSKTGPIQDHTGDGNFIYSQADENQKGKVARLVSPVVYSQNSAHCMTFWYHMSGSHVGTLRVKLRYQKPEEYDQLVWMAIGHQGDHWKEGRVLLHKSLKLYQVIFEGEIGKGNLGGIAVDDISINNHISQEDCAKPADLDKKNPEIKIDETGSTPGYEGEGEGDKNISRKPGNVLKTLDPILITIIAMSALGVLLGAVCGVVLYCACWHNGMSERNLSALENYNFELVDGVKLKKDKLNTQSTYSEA

Compound | IC50
CC(C)(c1cn([C@@H](CCCNC(=N)N)C(=O)O)nn1)n1cc(CNC(=O)[C@H](N)CCCCNC(=O)[C@@H](N)CCCCNC(=N)N)nn1 [2D, H-D-Lys(Har)-Gly[Trl]Mba[Trl]Arg-OH] | 69.4 ± 4 µM
N=C(N)NCCCC[C@H](N)C(=O)NCCCC[C@@H](N)C(=O)NCc1cn(Cc2cn([C@@H](CCCNC(=N)N)C(=O)O)nn2)nn1 [1D, H-D-Lys(Har)-Gly[Trl]Gly[Trl]Arg-OH] | 63.6 ± 2.3 µM
N=C(N)NCCCC[C@H](N)C(=O)NCCCC[C@H](N)C(=O)NCc1cn(Cc2cn([C@@H](CCCNC(=N)N)C(=O)O)nn2)nn1 [1L, H-Lys(Har)-Gly[Trl]Gly[Trl]Arg-OH] | 68.5 ± 3.3 µM

The next lines start with the values.

IC50 | Compound
36 µM and 35.6 µM | CC(C)(NC(=O)[C@H](N)CCCCNC(=O)[C@@H](N)CCCCNC(=N)N)c1cn(Cc2cn([C@@H](CCCNC(=N)N)C(=O)O)nn2)nn1 [4D, H-D-Lys(Har)-Mba[Trl]Gly[Trl]Arg-OH]
87.5 ± 3.3 µM | CC(C)(c1cn([C@@H](CCCNC(=N)N)C(=O)O)nn1)n1cc(CNC(=O)[C@@H](N)CCCCNC(=O)[C@@H](N)CCCCNC(=N)N)nn1 [2L, H-Lys(Har)-Gly[Trl]Mba[Trl]Arg-OH]
23 µM and 23.4 µM | CC(C)(NC(=O)[C@@H](N)CCCCNC(=O)[C@@H](N)CCCCNC(=N)N)c1cn(C(C)(C)c2cn([C@@H](CCCNC(=N)N)C(=O)O)nn2)nn1 [3L, H-Lys(Har)-Mba[Trl]Mba[Trl]Arg-OH]
31.2 ± 4.2 µM | ATWLPPR [A7R, ATWLPPR, reference compound]
91 µM and 90.5 µM | CC(C)(NC(=O)[C@H](N)CCCCNC(=O)[C@@H](N)CCCCNC(=N)N)c1cn(C(C)(C)c2cn([C@@H](CCCNC(=N)N)C(=O)O)nn2)nn1 [3D, H-D-Lys(Har)-Mba[Trl]Mba[Trl]Arg-OH]
